The text below walks through data of patent US20240182456A1, “2-((4-((S)-2-(4-CHLORO-2-FLUOROPHENYL)-2-METHYLBENZO[D][1,3]DIOXOL-4-YL)PIPERIDIN-1-YL)METHYL)-1-(((S)-OXETAN-2-YL)METHYL)-1H-IMIDAZOLE DERIVATIVES AS ACTIVATORS OF THE GLP1 RECEPTOR FOR THE TREATMENT OF OBESITY” (Novartis AG, priority 2021, published 2024).

Where only a bound is given, the exact number is not on record here.

The target of assay [1] is T1, human GLP1R (hGLP1R) (Homo sapiens, UniProt P43220). Put plainly: Human GLP1R cAMP agonist assay (GloSensor). Format: cell-based. The settings on record: HEK293-SNAP-hGLP1R-GloSensor cells; for Emax: cAMP, normalized to GLP1(7-36) maximum response, read-out: Emax mean; for EC50: intracellular cAMP, mean n=3 where SEM is given. In outline:
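HEK293 cells stably expressing SNAP-tagged hGLP1R and the GloSensor-22F cAMP luciferase biosensor, pre-loaded 2 h with substrate, then exposed 12 min at rt to compound (30–0.06 μM, 0.5 mM IBMX, 0.1% BSA). Luminescence normalized to 2 nM GLP1(7-36); EC50 and Emax from 4-parameter logistic fit.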

Assay [2] has as its target T1, human GLP1R (hGLP1R). Put plainly: Human GLP1R β-arrestin recruitment assay (PathHunter). The settings on record: CHO-hGLP1R-β-arrestin cells; for EC50: mean n=2, read-out: Beta-Arrestin assay EC50 Mean; for Emax: relative to GLP1(7-36), read-out: Beta-Arrestin assay Emax. More on the design: insert synthesized by GeneArt 93-0164 (cells); 93-0491 (vector bundle). Format: cell-based. As to the method:
Compounds 1 to 31 were tested in the following cellular assays that measure the intracellular cAMP concentration, beta-arrestin recruitment and receptor internalization. The cAMP is generated by the activation of GLP1R. The cAMP data obtained is shown in Table 1 (where S.E.M. is included, mean n=3 independent experiments+/−S.E.M). Beta-arrestin is recruited upon activation of GLP1R and the data obtained are shown in Table 2 (mean n=2 independent experiments, +/−S.D). The extent to which the GLP1R is internalized into the cell and away from the plasma membrane following activation is also shown in Table 2 (mean n=2 independent experiments, +/−S.D). EC50 for each assay is defined as the concentration of the compound that leads to half of the maximum response (after baseline correction). Emax is defined as the maximum response observed for the test compound, normalized to the maximum response observed for the endogenous ligand (GLP1(7-36)) to GLP1R.
The extent to which agonists recruited β-arrestin was measured using the PathHunter® β-arrestin assay (DiscoverX). This assay measures binding of β-arrestin to the receptor using an enzyme complementation approach. […] When β-arrestin is recruited to the receptor the enzyme becomes active and generates luminescence in the presence of a chemiluminescent substrate (PathHunter® Detection Kit, DiscoverX cat #93-0001). Luminescence can be measured on a relevant detector. CHO-hGLP1R-β-arrestin cells stably overexpressing hGLP1R with Prolink tag and β-arrestin with EA tag were seeded at 20 μL per well in white 384-well poly-D-Lysine coated plates (Greiner Bio One, cat #781945) in Plating Reagent 2 (DiscoverX, cat #93-0563R2A), and incubated overnight at 37° C., 5% CO2 with humidity. The following day, agonists were prepared at 5 times the final required concentration. To generate triplicate dose response curves, compounds were serially diluted 3-fold in assay buffer (HBSS, 10 mM Hepes and 0.1% BSA), then added to the cell assay plate to a final volume of 25 μL and final top concentrations starting at 30 μM. In the same plate and assay buffer as the tested compounds, were EC100 control wells containing GLP1 (7-36) peptide (Bachem, cat #H-6795) at a final concentration of 1 μM and also EC0 control wells containing no compound. The plate was incubated at 37° C., 5% CO2 with humidity for 2 h after adding the compounds to the cells. Then the detection reagent was prepared (19 parts cell assay buffer, 5 parts substrate reagent 1 and 1 part substrate reagent 2 as per manufacturers recommendations, DiscoverX cat #93-0001), and 12 μL were added per well to the cell assay plate. The plate was incubated for an additional hour in the dark at RT. Luminescence was then measured with an Envision 2104 Multilabel reader with “TRF Light Unit, 337 nm” (Perkin Elmer) using the Ultra-Sensitive protocol setting “384-well US luminescence detector” with the 384-well luminescence aperture, 0.1 sec per well. β-arrestin recruitment was calculated and expressed as percent of the GLP1 (7-36) EC100 control wells: [(sample signal−mean EC0 signal)/(mean EC100 of GLP1 (7-36) signal−mean EC0 signal)]*100 using Microsoft Excel. Curve fitting for EC50 determinations was performed using GraphPad Prism. The 4-parameter logistic model, Hill slope was used: Y=Bottom+(Top−Bottom)/(1+10^((Log EC50−X)*Hill Slope)), where Y is the functional response; X is the compound concentration; bottom is A0 or the minimum value (at 0 dose); top is Ainf or the maximum value (at infinite dose); EC50 is the point of inflection (i.e. the point on the sigmoid shaped curve halfway between A0 and Ainf). The EC50 value was calculated in μM. Emax is the maximal activity detected within the concentration range, derived from the fitted curve relative to GLP1(7-36). […]
On the technique in general: Recruitment of arrestin is a read-out of receptor activation apart from second messengers.

T1 sequence (P43220 24-463): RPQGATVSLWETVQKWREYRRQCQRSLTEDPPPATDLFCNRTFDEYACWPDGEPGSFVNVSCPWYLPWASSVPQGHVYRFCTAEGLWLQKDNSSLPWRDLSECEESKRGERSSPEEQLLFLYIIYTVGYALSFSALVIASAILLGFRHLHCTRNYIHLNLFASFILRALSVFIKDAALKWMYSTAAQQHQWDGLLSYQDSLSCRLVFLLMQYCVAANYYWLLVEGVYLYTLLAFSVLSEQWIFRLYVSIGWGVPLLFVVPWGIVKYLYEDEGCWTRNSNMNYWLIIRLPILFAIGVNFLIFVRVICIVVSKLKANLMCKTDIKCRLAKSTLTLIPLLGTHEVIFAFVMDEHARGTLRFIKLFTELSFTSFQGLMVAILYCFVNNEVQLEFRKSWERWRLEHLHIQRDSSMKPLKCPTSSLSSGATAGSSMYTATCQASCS

Consider `C[C@]1(c2ccc(Cl)cc2F)Oc2cccc(C3CCN(Cc4ncc(/C=C/C(=O)O)n4C[C@@H]4CCO4)CC3)c2O1` [Compound C-1, (E)-3-(2-((4-((S)-2-(4-chloro-2-fluorophenyl)-2-methylbenzo[d][1,3]dioxol-4-yl)piperidin-1-yl)methyl)-1-(((S)-oxetan-2-yl)methyl)-1H-imidazol-5-yl)acrylic acid], for which the Emax (as a rule, the maximal effect, on the per cent scale that the assay sets) on human GLP1R (hGLP1R) [1] was found to be 111%; on human GLP1R (hGLP1R) [2], 9%. Moreover, the figures for the EC50 at human GLP1R (hGLP1R) [1] and on human GLP1R (hGLP1R) [2] were 0.0197 nM and 494 nM, respectively.

For the molecule `C[C@]1(c2ccc(Cl)cc2F)Oc2cccc(C3CCN(Cc4nc(/C=C/C(=O)O)cn4C[C@@H]4CCO4)CC3)c2O1` [Compound C-2, (E)-3-(2-((4-((S)-2-(4-chloro-2-fluorophenyl)-2-methylbenzo[d][1,3]dioxol-4-yl)piperidin-1-yl)methyl)-1-(((S)-oxetan-2-yl)methyl)-1H-imidazol-4-yl)acrylic acid], at human GLP1R (hGLP1R) [1], the maximum response (Emax) is 109% and the EC50 (as a rule, the concentration that produces a half-maximal response) is 2.23 nM. On human GLP1R (hGLP1R) [2], the EC50 was over 30000 nM and the Emax stood at 0%.

Consider `Cc1nc(CN2CCC(c3cccc4c3O[C@@](C)(c3ccc(Cl)cc3F)O4)CC2)n(C[C@@H]2CCO2)c1/C=C/C(=O)O` [Compound C-5, (E)-3-(2-((4-((S)-2-(4-chloro-2-fluorophenyl)-2-methylbenzo[d][1,3]dioxol-4-yl)piperidin-1-yl)methyl)-4-methyl-1-(((S)-oxetan-2-yl)methyl)-1H-imidazol-5-yl)acrylic acid], for which the Emax was 110% at human GLP1R (hGLP1R) [1] and 12% at human GLP1R (hGLP1R) [2]. The EC50 is 0.0129 nM on human GLP1R (hGLP1R) [1] and 404 nM on human GLP1R (hGLP1R) [2].

`C[C@]1(c2ccc(Cl)cc2F)Oc2cccc(C3CCN(Cc4nc(C(F)(F)F)c(C(=O)O)n4C[C@@H]4CCO4)CC3)c2O1` [Compound C-7, 2-((4-((S)-2-(4-chloro-2-fluorophenyl)-2-methylbenzo[d][1,3]dioxol-4-yl)piperidin-1-yl)methyl)-1-(((S)-oxetan-2-yl)methyl)-4-(trifluoromethyl)-1H-imidazole-5-carboxylic acid]: on human GLP1R (hGLP1R) [1], the maximal effect (Emax) came out at 109% and the EC50 came out at 0.847 nM. Moreover, on human GLP1R (hGLP1R) [2], the EC50 is over 30000 nM and the Emax was 2%.
